The EC50 is the concentration giving half of the maximal effect. A high value points to weaker potency.

In the assay the target is T1, cloned human GLP-1 receptor (Homo sapiens, UniProt P43220).
T1 construct: expressed in transfected cells; host or cells: CHO or HEK-293 cells
The assay is described as follows: Functional cell-based assay: cAMP functional assay. The settings on record: for Emax: 0.5 h, percentage relative to maximal GLP-1-induced cAMP accumulation, na = not active in the assay, read-out: % activation. On the procedure: Following overnight incubation of cells, media was removed, and compounds (at concentrations ranging from 0.0001 to 100 μM) were added to monolayer cells in Iscove's modified dulbecco's medium (IMDM), 100 μM RO 20-1724 PDE inhibitor, 0.1% BSA, 2% DMSO in a final volume of 100 μL, and incubated for 30 min at 37° C. 95% O2, 5% CO2 in a humidified incubator. cAMP was quantitated using a homogenous time-resolved fluorescence detection system (cAMP dynamic, CIS bio International).
(In general: cAMP levels reflect the balance of adenylyl cyclase and phosphodiesterase activity.)

T1 sequence (P43220 24-463): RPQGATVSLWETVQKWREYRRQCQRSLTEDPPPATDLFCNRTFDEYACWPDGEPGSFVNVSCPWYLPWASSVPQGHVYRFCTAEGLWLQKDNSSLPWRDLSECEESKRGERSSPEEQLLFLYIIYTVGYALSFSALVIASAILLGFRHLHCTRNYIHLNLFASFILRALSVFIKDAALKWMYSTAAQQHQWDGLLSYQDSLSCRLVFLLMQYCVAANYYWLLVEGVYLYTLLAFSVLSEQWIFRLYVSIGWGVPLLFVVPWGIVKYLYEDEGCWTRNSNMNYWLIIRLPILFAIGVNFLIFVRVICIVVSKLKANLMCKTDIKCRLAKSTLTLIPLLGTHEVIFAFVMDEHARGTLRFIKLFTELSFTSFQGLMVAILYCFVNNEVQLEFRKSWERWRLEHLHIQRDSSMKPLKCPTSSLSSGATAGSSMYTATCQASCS

Consider `N#Cc1ccc(-c2ccc(C[C@H](NC(=O)[C@@H]3Cc4cc5c(cc4CN3C(=O)OCC3CC3)OC(c3ccc(OCc4ccc(Cl)c(Cl)c4)cc3)C(=O)N5)C(=O)O)cc2)cc1` (stereo partly drawn) [Example 18, (S)-7-[(S)-1-Carboxy-2-(4′-cyano-biphenyl-4-yl)-ethylcarbamoyl]-3-[4-(3,4-dichloro-benzyloxy)-phenyl]-2-oxo-1,2,3,5,7,8-hexahydro-4-oxa-1,6-diaza-anthracene-6-carboxylic acid cyclopropylmethyl ester], for which the EC50 amounted to 270 nM and the Emax is 74.7%.

On to `N#Cc1ccc(-c2ccc(C[C@H](NC(=O)[C@@H]3Cc4cc5c(cc4CN3C(=O)O[C@@H]3CCOC3)OC(c3ccc(OCc4ccc(Cl)c(Cl)c4)cc3)C(=O)N5)C(=O)O)cc2)cc1` (stereo partly drawn) [Example 19, (S)-7-[(S)-1-Carboxy-2-(4′-cyano-biphenyl-4-yl)-ethylcarbamoyl]-3-[4-(3,4-dichloro-benzyloxy)-phenyl]-2-oxo-1,2,3,5,7,8-hexahydro-4-oxa-1,6-diaza-anthracene-6-carboxylic acid (R)-(tetrahydro-furan-3-yl) ester], for which the 50% effective concentration (EC50) was found to be 181 nM and the Emax came out at 69.9%.

With `N#Cc1ccc(-c2ccc(C[C@H](NC(=O)[C@@H]3Cc4cc5c(cc4CN3C(=O)c3ccco3)OC(c3ccc(OCc4ccc(Cl)c(Cl)c4)cc3)C(=O)N5)C(=O)O)cc2)cc1` (stereo partly drawn) [Example 20, (S)-3-(4′-Cyano-biphenyl-4-yl)-2-{[(S)-3-[4-(3,4-dichloro-benzyloxy)-phenyl]-6-(furan-2-carbonyl)-2-oxo-2,3,5,6,7,8-hexahydro-1H-4-oxa-1,6-diaza-anthracene-7-carbonyl]-amino}-propionic acid], the EC50 amounted to 417 nM and the Emax came to 83.5%.

With `Cc1cccc(C(=O)N2Cc3cc4c(cc3C[C@H]2C(=O)N[C@@H](Cc2ccc(-c3ccc(C#N)cc3)cc2)C(=O)O)NC(=O)C(c2ccc(OCc3ccc(Cl)c(Cl)c3)cc2)O4)c1` (stereo partly drawn) [Example 21, (S)-3-(4′-Cyano-biphenyl-4-yl)-2-{[(S)-3-[4-(3,4-dichloro-benzyloxy)-phenyl]-6-(3-methyl-benzoyl)-2-oxo-2,3,5,6,7,8-hexahydro-1H-4-oxa-1,6-diaza-anthracene-7-carbonyl]-amino}-propionic acid], the EC50 was 399 nM and the Emax amounted to 70.3%.

For `N#Cc1ccc(-c2ccc(C[C@H](NC(=O)[C@@H]3Cc4cc5c(cc4CN3C(=O)c3ccc(F)cc3)OC(c3ccc(OCc4ccc(Cl)c(Cl)c4)cc3)C(=O)N5)C(=O)O)cc2)cc1` (stereo partly drawn) [Example 22, (S)-3-(4′-Cyano-biphenyl-4-yl)-2-{[(S)-3-[4-(3,4-dichloro-benzyloxy)-phenyl]-6-(4-fluoro-benzoyl)-2-oxo-2,3,5,6,7,8-hexahydro-1H-4-oxa-1,6-diaza-anthracene-7-carbonyl]-amino}-propionic acid], the midpoint of the response, the EC50, lay at 891 nM and the Emax amounted to 73.5%.

Turning to `COc1ccc(C(=O)N2Cc3cc4c(cc3C[C@H]2C(=O)N[C@@H](Cc2ccc(-c3ccc(C#N)cc3)cc2)C(=O)O)NC(=O)C(c2ccc(OCc3ccc(Cl)c(Cl)c3)cc2)O4)cc1` (stereo partly drawn) [Example 23, (S)-3-(4′-Cyano-biphenyl-4-yl)-2-{[(S)-3-[4-(3,4-dichloro-benzyloxy)-phenyl]-6-(4-methoxy-benzoyl)-2-oxo-2,3,5,6,7,8-hexahydro-1H-4-oxa-1,6-diaza-anthracene-7-carbonyl]-amino}-propionic acid], the EC50 is 1280 nM and the Emax came out at 65.5%.

For `N#Cc1ccc(-c2ccc(C[C@H](NC(=O)[C@@H]3Cc4cc5c(cc4CN3C(=O)c3cccc(C(F)(F)F)c3)OC(c3ccc(OCc4ccc(Cl)c(Cl)c4)cc3)C(=O)N5)C(=O)O)cc2)cc1` (stereo partly drawn) [Example 24, (S)-3-(4′-Cyano-biphenyl-4-yl)-2-{[(S)-3-[4-(3,4-dichloro-benzyloxy)-phenyl]-2-oxo-6-(3-trifluoromethyl-benzoyl)-2,3,5,6,7,8-hexahydro-1H-4-oxa-1,6-diaza-anthracene-7-carbonyl]-amino}-propionic acid], the midpoint of the response, the EC50, lay at 1600 nM and the Emax amounted to 53%.

Consider `N#Cc1ccc(-c2ccc(C[C@H](NC(=O)[C@@H]3Cc4cc5c(cc4CN3C(=O)C3CCCCC3)OC(c3ccc(OCc4ccc(Cl)c(Cl)c4)cc3)C(=O)N5)C(=O)O)cc2)cc1` (stereo partly drawn) [Example 25, (S)-3-(4′-Cyano-biphenyl-4-yl)-2-({(S)-6-cyclohexanecarbonyl-3-[4-(3,4-dichloro-benzyloxy)-phenyl]-2-oxo-2,3,5,6,7,8-hexahydro-1H-4-oxa-1,6-diaza-anthracene-7-carbonyl}-amino)-propionic acid], for which the EC50 came out at 594 nM and the Emax is 12%.

In the case of `N#Cc1ccc(-c2ccc(C[C@H](NC(=O)[C@@H]3Cc4cc5c(cc4CN3C(=O)c3cccc4ccccc34)OC(c3ccc(OCc4ccc(Cl)c(Cl)c4)cc3)C(=O)N5)C(=O)O)cc2)cc1` (stereo partly drawn) [Example 26, (S)-3-(4′-Cyano-biphenyl-4-yl)-2-{[(S)-3-[4-(3,4-dichloro-benzyloxy)-phenyl]-6-(naphthalene-1-carbonyl)-2-oxo-2,3,5,6,7,8-hexahydro-1H-4-oxa-1,6-diaza-anthracene-7-carbonyl]-amino}-propionic acid], the EC50 was 1100 nM and the Emax came to 14%.

On to `N#Cc1ccc(-c2ccc(C[C@H](NC(=O)[C@@H]3Cc4cc5c(cc4CN3C(=O)c3cccs3)OC(c3ccc(OCc4ccc(Cl)c(Cl)c4)cc3)C(=O)N5)C(=O)O)cc2)cc1` (stereo partly drawn) [Example 28, (S)-3-(4′-Cyano-biphenyl-4-yl)-2-{[(S)-3-[4-(3,4-dichloro-benzyloxy)-phenyl]-2-oxo-6-(thiophene-2-carbonyl)-2,3,5,6,7,8-hexahydro-1H-4-oxa-1,6-diaza-anthracene-7-carbonyl]-amino}-propionic acid], for which the EC50 worked out at 398 nM and the Emax is 29%.

As to `CC(C)(C)OC(=O)N1Cc2cc3c(cc2C[C@H]1C(=O)N[C@@H](Cc1ccc(-c2ccc(C#N)cc2)cc1)C(=O)O)NC(=O)C(c1ccc(OCc2ccc(Cl)c(Cl)c2)cc1)O3` (stereo partly drawn) [Example 29, (S)-7-[(S)-1-Carboxy-2-(4′-cyano-biphenyl-4-yl)-ethylcarbamoyl]-3-[4-(3,4-dichloro-benzyloxy)-phenyl]-2-oxo-1,2,3,5,7,8-hexahydro-4-oxa-1,6-diaza-anthracene-6-carboxylic acid tert-butyl ester], a half-maximal response (EC50) required 290 nM and the Emax turned out to be 17%.

On to `Cc1cc(C(=O)N2Cc3cc4c(cc3C[C@H]2C(=O)N[C@@H](Cc2ccc(-c3ccc(C#N)cc3)cc2)C(=O)O)NC(=O)C(c2ccc(OCc3ccc(Cl)c(Cl)c3)cc2)O4)no1` (stereo partly drawn) [Example 31, (S)-3-(4′-Cyano-biphenyl-4-yl)-2-{[(S)-3-[4-(3,4-dichloro-benzyloxy)-phenyl]-6-(5-methyl-isoxazole-3-carbonyl)-2-oxo-2,3,5,6,7,8-hexahydro-1H-4-oxa-1,6-diaza-anthracene-7-carbonyl]-amino}-propionic acid], for which it took 1000 nM to reach a half-maximal effect (EC50) and the Emax is 13%.

For `N#Cc1ccc(-c2ccc(C[C@H](NC(=O)[C@@H]3Cc4cc5c(cc4CN3S(=O)(=O)c3cccs3)OC(c3ccc(OCc4ccc(Cl)c(Cl)c4)cc3)C(=O)N5)C(=O)O)cc2)cc1` (stereo partly drawn) [Example 32, (S)-3-(4′-Cyano-biphenyl-4-yl)-2-{[(S)-3-[4-(3,4-dichloro-benzyloxy)-phenyl]-2-oxo-6-(thiophene-2-sulfonyl)-2,3,5,6,7,8-hexahydro-1H-4-oxa-1,6-diaza-anthracene-7-carbonyl]-amino}-propionic acid], a half-maximal response (EC50) required 700 nM and the Emax was found to be 8.3%.

These data come from US7906507B2, “Oxadiazoanthracene compounds for the treatment of diabetes” (TransTech Pharma, Inc., priority 2008, dated 2011).
